#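 Dose response: 5 concentrations. Exposure: 48 h. Format: 96-well plates. Endpoint: linear interpolation; highest concentration if not reached. Definition used: TGI = concentration required for complete inhibition of growth.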
# Assays:
# Experiment in all cases: NCI-60 cell line screen, 48 h
# [1] = system: 786-0 renal
# [2] = system: A498 renal
# [3] = system: A549 NSCLC
# [4] = system: ACHN renal
# [5] = system: CAKI-1 renal
# [6] = system: CCRF-CEM leukemia
# [7] = system: COLO 205 colon
# [8] = system: DLD-1 colon
# [9] = system: DMS 114 small cell lung
# [10] = system: DMS 273 small cell lung
# [11] = system: HCC-2998 colon
# [12] = system: HCT-116 colon
# [13] = system: HCT-15 colon
# [14] = system: HL-60(TB) leukemia
# [15] = system: HOP-18 NSCLC
# [16] = system: HOP-92 NSCLC
# [17] = system: HT29 colon
# [18] = system: IGROV1 ovarian
# [19] = system: K-562 leukemia
# [20] = system: KM12 colon
# [21] = system: KM20L2 colon
# [22] = system: LOX IMVI melanoma
# [23] = system: LXFL 529 NSCLC
# [24] = system: M14 melanoma
# [25] = system: M19-MEL melanoma
# [26] = system: MALME-3M melanoma
# [27] = system: MOLT-4 leukemia
# [28] = system: NCI-H226 lung
# [29] = system: NCI-H23 lung
# [30] = system: NCI-H460 lung
# [31] = system: NCI-H522 lung
# [32] = system: OVCAR-3 ovarian
# [33] = system: OVCAR-4 ovarian
# [34] = system: RPMI-8226 leukemia
# [35] = system: RXF 393 renal
# [36] = system: RXF-631 renal
# [37] = system: SF-268 CNS
# [38] = system: SF-295 CNS
# [39] = system: SF-539 CNS
# [40] = system: SK-MEL-2 melanoma
# [41] = system: SK-MEL-28 melanoma
# [42] = system: SK-MEL-5 melanoma
# [43] = system: SK-OV-3 ovarian
# [44] = system: SN12C renal
# [45] = system: SNB-19 CNS
# [46] = system: SNB-75 CNS
# [47] = system: SNB-78 CNS
# [48] = system: SW-620 colon
# [49] = system: TK-10 renal
# [50] = system: U251 CNS
# [51] = system: UACC-257 melanoma
# [52] = system: UACC-62 melanoma
# [53] = system: UO-31 renal
# [54] = system: XF 498 CNS
# [55] = system: BT-549 breast
# [56] = system: DU-145 prostate
# [57] = system: EKVX NSCLC
# [58] = system: HOP-62 NSCLC
# [59] = system: HS 578T breast
# [60] = system: MCF7 breast
# [61] = system: MDA-MB-231 breast
# [62] = system: MDA-MB-435
# [63] = system: MDA-N
# [64] = system: NCI/ADR-RES ovarian
# [65] = system: OVCAR-5 ovarian
# [66] = system: OVCAR-8 ovarian
# [67] = system: PC-3 prostate
# [68] = system: SR leukemia
# [69] = system: T-47D breast
smiles,measurement,setting,value
C[C@]12CC[C@H](OC(=O)Cc3ccc(N(CCCl)CCCl)cc3)CC1CC[C@@H]1C2CC[C@]2(C)NC(=O)CCC12 (stereo partly drawn),TGI,[1],29 µM
same,TGI,[2],43.5 µM
same,TGI,[3],37.5 µM
same,TGI,[4],27.7 µM
same,TGI,[5],15.3 µM
same,TGI,[6],18 µM
same,TGI,[7],18.4 µM
same,TGI,[8],32.4 µM
same,TGI,[9],21.9 µM
same,TGI,[10],20.5 µM
same,TGI,[11],34.8 µM
same,TGI,[12],18.5 µM
same,TGI,[13],30.6 µM
same,TGI,[14],6.06 µM
same,TGI,[15],31.4 µM
same,TGI,[16],35.6 µM
same,TGI,[17],3.79 µM
same,TGI,[18],30.5 µM
same,TGI,[19],24.8 µM
same,TGI,[20],25.5 µM
same,TGI,[21],23.7 µM
same,TGI,[22],27.2 µM
same,TGI,[23],25 µM
same,TGI,[24],28.8 µM
same,TGI,[25],28.8 µM
same,TGI,[26],35.7 µM
same,TGI,[27],15.6 µM
same,TGI,[28],69.6 µM
same,TGI,[29],35.4 µM
same,TGI,[30],35.1 µM
same,TGI,[31],25.4 µM
same,TGI,[32],14.8 µM
same,TGI,[33],28.9 µM
same,TGI,[34],23 µM
same,TGI,[35],24.3 µM
same,TGI,[36],34.1 µM
same,TGI,[37],33 µM
same,TGI,[38],25.2 µM
same,TGI,[39],12.5 µM
same,TGI,[40],48.7 µM
same,TGI,[41],31.9 µM
same,TGI,[42],32.5 µM
same,TGI,[43],33.8 µM
same,TGI,[44],18.6 µM
same,TGI,[45],> 100 µM
same,TGI,[46],27.4 µM
same,TGI,[47],39.3 µM
same,TGI,[48],24.7 µM
same,TGI,[49],44.4 µM
same,TGI,[50],29.3 µM
same,TGI,[51],27 µM
same,TGI,[52],21.4 µM
same,TGI,[53],> 100 µM
same,TGI,[54],28.3 µM
CC(/C=C/C=C\C=C\C=C(/C)C(=O)NC(C)CO)=C\C(C)C(O)/C(C)=C/C(C)CCc1ccccc1 (stereo not drawn),TGI,[1],26.4 µM
same,TGI,[2],26.7 µM
same,TGI,[3],> 100 µM
same,TGI,[4],21.9 µM
same,TGI,[55],33.1 µM
same,TGI,[5],54.1 µM
same,TGI,[6],> 56.6 µM
same,TGI,[7],26.8 µM
same,TGI,[8],31.6 µM
same,TGI,[9],2.47 µM
same,TGI,[10],17.1 µM
same,TGI,[56],> 100 µM
same,TGI,[57],> 80.6 µM
same,TGI,[11],26.7 µM
same,TGI,[12],19.4 µM
same,TGI,[13],31.1 µM
same,TGI,[14],> 100 µM
same,TGI,[15],24.2 µM
same,TGI,[58],37.5 µM
same,TGI,[16],13.5 µM
same,TGI,[59],52.8 µM
same,TGI,[17],25.2 µM
same,TGI,[18],20.1 µM
same,TGI,[19],> 53.6 µM
same,TGI,[20],19.1 µM
same,TGI,[21],25.1 µM
same,TGI,[22],16.5 µM
same,TGI,[23],18.7 µM
same,TGI,[24],23 µM
same,TGI,[25],19.4 µM
same,TGI,[26],22.3 µM
same,TGI,[60],19.7 µM
same,TGI,[61],45.2 µM
same,TGI,[62],39.7 µM
same,TGI,[63],31.5 µM
same,TGI,[27],55.6 µM
same,TGI,[28],26.5 µM
same,TGI,[29],17 µM
same,TGI,[30],26.5 µM
same,TGI,[31],17.6 µM
same,TGI,[64],93 µM
same,TGI,[32],20 µM
same,TGI,[33],37.4 µM
same,TGI,[65],31 µM
same,TGI,[66],25 µM
same,TGI,[67],25.2 µM
same,TGI,[34],> 78.6 µM
same,TGI,[35],26.6 µM
same,TGI,[37],28.4 µM
same,TGI,[38],13.4 µM
same,TGI,[39],27.1 µM
same,TGI,[40],29.6 µM
same,TGI,[41],25.9 µM
same,TGI,[42],15.5 µM
same,TGI,[43],64 µM
same,TGI,[44],26.4 µM
same,TGI,[45],35.8 µM
same,TGI,[46],26.7 µM
same,TGI,[47],25.2 µM
same,TGI,[68],> 59 µM
same,TGI,[48],28.4 µM
same,TGI,[69],46.4 µM
same,TGI,[49],32.1 µM
same,TGI,[50],37.9 µM
same,TGI,[51],12.3 µM
same,TGI,[52],25.6 µM
same,TGI,[53],27.3 µM
same,TGI,[54],22 µM
SCc1ccc(-c2ccc(CS)cc2)cc1,TGI,[1],59.5 µM
same,TGI,[2],> 64.3 µM
same,TGI,[3],39.6 µM
same,TGI,[4],43.1 µM
same,TGI,[55],6.47 µM
same,TGI,[5],18.5 µM
same,TGI,[6],10.7 µM
same,TGI,[7],37.4 µM
same,TGI,[8],34.1 µM
same,TGI,[9],25.6 µM
same,TGI,[10],58.4 µM
same,TGI,[57],54.1 µM
same,TGI,[11],30.6 µM
same,TGI,[12],17.8 µM
same,TGI,[13],33.3 µM
same,TGI,[14],12.4 µM
same,TGI,[15],30.9 µM
same,TGI,[58],14 µM
same,TGI,[16],40.8 µM
same,TGI,[59],22.3 µM
same,TGI,[17],69.8 µM
same,TGI,[18],32.5 µM
same,TGI,[19],26.9 µM
same,TGI,[20],10.1 µM
same,TGI,[21],53 µM
same,TGI,[22],15 µM
same,TGI,[23],28.7 µM
same,TGI,[24],29.8 µM
same,TGI,[25],35.7 µM
same,TGI,[26],36.1 µM
same,TGI,[60],29.3 µM
same,TGI,[61],31 µM
same,TGI,[62],22.8 µM
same,TGI,[27],6.37 µM
same,TGI,[28],36.9 µM
same,TGI,[29],31.7 µM
same,TGI,[30],25.1 µM
same,TGI,[31],37.7 µM
same,TGI,[64],32.3 µM
same,TGI,[32],32.2 µM
same,TGI,[33],17.5 µM
same,TGI,[65],27 µM
same,TGI,[66],53.7 µM
same,TGI,[67],34 µM
same,TGI,[34],30.6 µM
same,TGI,[35],32.9 µM
same,TGI,[37],10.3 µM
same,TGI,[38],24.9 µM
same,TGI,[39],33.5 µM
same,TGI,[40],41.5 µM
same,TGI,[41],24.3 µM
same,TGI,[42],31 µM
same,TGI,[43],33.2 µM
same,TGI,[44],> 81.2 µM
same,TGI,[45],36.4 µM
same,TGI,[46],28.1 µM
same,TGI,[47],51 µM
same,TGI,[68],5.79 µM
same,TGI,[48],60 µM
same,TGI,[69],41.6 µM
same,TGI,[49],> 61.3 µM
same,TGI,[50],31.1 µM
same,TGI,[51],45.2 µM
same,TGI,[52],41.2 µM
same,TGI,[53],37.8 µM
same,TGI,[54],36.6 µM
